Reference: ChEMBL document CHEMBL1795204 (2011)
The source made the active and inactive calls. The rule behind the calls is not given here.

Columns and labels:
Format in all cases: functional
[1] = tested on: Haemonchus contortus; experiment: Anthelmintic activity against Haemonchus contortus McMaster by larvel development assay
[2] = tested on: Haemonchus contortus; experiment: Anthelmintic activity against benzimidazole and Levamisole-resistant Haemonchus contortus Lawes
[3] = tested on: Teladorsagia circumcincta; experiment: Anthelmintic activity against Ostertagia circumcincta
[4] = tested on: Haemonchus contortus; experiment: Anthelmintic activity against benzimidazole-resistant Haemonchus contortus VRSG
[5] = tested on: Haemonchus contortus; experiment: Anthelmintic activity against Ivermectin-resistant Haemonchus contortus CAVR
[6] = tested on: Trichostrongylus colubriformis; experiment: Anthelmintic activity against Trichostrongylus colubriformis McMaster

Q: How did the LD99 [1] turn out when `CCCOc1ccc2nc(-c3ccc(OC)c(OC)c3)cn2n1` was run?
A: 4.15 µM

Q: With `CCCSc1ccc2nc(-c3ccc(OCCOC)cc3)cn2n1` as the molecule, how does the LD99 [1] read?
A: 2.36 µM

Q: How did the LD99 [1] turn out when `CCCOc1nn2cc(-c3ccc(OCCOC)c(OC)c3)nc2cc1C` was run?
A: 0.32 µM

Q: Which LD99 [1] does the source give for `CCCCN(C)c1ccc2nc(-c3ccc(OCCOC)cc3)cn2n1` here?
A: 2.29 µM

Q: With `CCCOc1nn2cc(-c3ccc(OCC)cc3)nc2c2ccccc12` as the molecule, how does the LD99 [1] read?
A: 1.8 µM

Q: `CCCOc1ccc2nc(-c3ccc(OCCOCC)cc3)cn2n1` was tested. Which LD99 [1] did it give?
A: 0.32 µM

Q: `CCCOc1ccc2nc(-c3ccc(OCCOC)cc3)c(Br)n2n1` was tested. Which LD99 [1] did it give?
A: 0.03 µM

Q: `c1ccc([C@H]2CN3CCSC3=N2)cc1` [LEVAMISOLE] was tested. Which LD99 [1] did it give?
A: 0.66 µM

Q: How did the LD99 [1] turn out when `CCCCSc1ccc2nc(-c3ccc(C(F)(F)F)cc3)cn2n1` was run?
A: inactive

Q: `CCCOc1ccc2nc(-c3ccc(OCCOC)cc3)c(Cl)n2n1` was tested. Which LD99 [1] did it give?
A: 0.06 µM

Q: With `CCCOc1ccc2nc(-c3ccc(OCCOC)cc3)c(I)n2n1` as the molecule, how does the LD99 [1] read?
A: 0.03 µM

Q: Which LD99 [1] does the source give for `CCCCSc1ccc2nc(-c3ccc(OCCOCC)cc3)cn2n1` here?
A: 0.59 µM

Q: For `CCCOc1ccc2nc(-c3cccc(OC)c3)cn2n1`, which LD99 [1] is on record?
A: 0.81 µM

Q: For `CCCSc1ccc2nc(-c3ccc(OCC)cc3)cn2n1`, which LD99 [1] is on record?
A: 1.21 µM

Q: With `CCCOc1ccc2nc(-c3ccc(Cl)cc3)cn2n1` as the molecule, how does the LD99 [1] read?
A: 13.03 µM

Q: Which LD99 [1] does the source give for `CCCCOc1ccc2nc(-c3ccc(OCCOC)cc3)cn2n1` here?
A: 0.64 µM

Q: With `CCCCc1ccc2nc(-c3ccc(OCCOC)cc3)cn2n1` as the molecule, how does the LD99 [1] read?
A: 1.92 µM

Q: How did the LD99 [1] turn out when `COCCOc1ccc(-c2nc3ccc(OCC4CC4)nn3c2Br)cc1` was run?
A: 0.1 µM

Q: For `COCCOc1ccc(-c2nc3ccc(OCc4ccccc4)nn3c2Cl)cc1`, which LD99 [1] is on record?
A: inactive

Q: `CCCOc1ccc2nc(-c3ccc4c(c3)OCO4)cn2n1` was tested. Which LD99 [2] did it give?
A: 0.67 µM

Q: What about the LD99 [1] of the same molecule?
A: 0.77 µM

Q: And the LD99 [3]?
A: 0.33 µM

Q: What about the LD99 [4] of the same molecule?
A: 0.94 µM

Q: And the LD99 [5]?
A: 1.85 µM

Q: And the LD99 [6]?
A: 0.67 µM

Q: Which LD99 [1] does the source give for `Clc1ccc(-c2cn3nc(OCC4CC4)ccc3n2)c(Cl)c1` here?
A: inactive

Q: How did the LD99 [1] turn out when `CCOCCOc1ccc(-c2cn3nc(SCC(C)C)ccc3n2)cc1` was run?
A: 0.87 µM

Q: For `CCCNc1ccc2nc(-c3ccc(OCCOC)cc3)cn2n1`, which LD99 [1] is on record?
A: 2.11 µM

Q: For `CCCSc1ccc2nc(-c3ccc(OCCOC)c(OC)c3)c(Br)n2n1`, which LD99 [1] is on record?
A: 1.66 µM

Q: How did the LD99 [1] turn out when `CCCOc1ccc2nc(-c3ccccc3)cn2n1` was run?
A: inactive

Q: Which LD99 [1] does the source give for `COCCOc1ccc(-c2cn3nc(-c4ccsc4)ccc3n2)cc1` here?
A: 1.96 µM

Q: For `FC(F)(F)c1ccc(-c2cn3nc(OCC4CC4)ccc3n2)cc1`, which LD99 [1] is on record?
A: inactive

Q: With `CCCOc1ccc2nc(-c3ccc(OCCOC)c(OC)c3)cn2n1` as the molecule, how does the LD99 [1] read?
A: 2.27 µM

Q: How did the LD99 [1] turn out when `COCCOc1ccc(-c2cn3nc(OC(C)C)ccc3n2)cc1` was run?
A: 4.96 µM

Q: Which LD99 [1] does the source give for `COCCOc1ccc(-c2cn3nc(OCCOC)ccc3n2)cc1` here?
A: 17.47 µM

Q: With `COCCOc1ccc(-c2cn3ncccc3n2)cc1` as the molecule, how does the LD99 [1] read?
A: inactive

Q: Which LD99 [1] does the source give for `CCCOc1ccc2nc(-c3ccc4c(c3)OCCO4)cn2n1` here?
A: 2.6 µM

Q: With `CCCSc1ccc2nc(-c3ccc(Cl)cc3Cl)cn2n1` as the molecule, how does the LD99 [1] read?
A: inactive

Q: For `CCCOc1ccc2nc(-c3ccc(OCCOC)cc3)cn2n1`, which LD99 [1] is on record?
A: 0.29 µM

Q: Which LD99 [1] does the source give for `CCc1ccc(-c2cn3nc(OCC4CC4)ccc3n2)cc1` here?
A: 0.27 µM

Q: How did the LD99 [1] turn out when `CCOc1ccc(-c2cn3nc(OCC4CC4)ccc3n2)cc1` was run?
A: 0.09 µM

Q: With `CCCOc1ccc2nc(-c3ccc(OCCOC)c(OC)c3)c(I)n2n1` as the molecule, how does the LD99 [1] read?
A: 10.35 µM

Q: `CCCOc1nn2cc(-c3ccc(OCCOC)cc3)nc2c2ccccc12` was tested. Which LD99 [1] did it give?
A: 0.91 µM

Q: With `COCCOc1ccc(-c2cn3nc(-c4ccccc4)ccc3n2)cc1` as the molecule, how does the LD99 [1] read?
A: 8.11 µM

Q: How did the LD99 [1] turn out when `COCCOc1ccc(-c2cn3nc(SC(C)C)ccc3n2)cc1` was run?
A: 0.59 µM

Q: `CCCOc1ccc2nc(-c3ccc(OCCOC)c(OC)c3)c(C#N)n2n1` was tested. Which LD99 [1] did it give?
A: inactive

Q: With `COCCOc1ccc(-c2cn3nc(OCC4CC4)ccc3n2)cc1` as the molecule, how does the LD99 [1] read?
A: 0.11 µM

Q: How did the LD99 [1] turn out when `COCCOc1ccc(-c2cn3nc(OC4CCCC4)ccc3n2)cc1` was run?
A: 5.31 µM

Q: Which LD99 [1] does the source give for `CCCCSc1ccc2nc(-c3ccc(OCCOC)cc3)cn2n1` here?
A: 0.26 µM

Q: Which LD99 [1] does the source give for `CCCOc1ccc2nc(-c3cccc(OCCOC)c3)c(C)n2n1` here?
A: 5.49 µM

Q: For `CCCSc1ccc2nc(-c3ccc(OCCOC)c(OC)c3)cn2n1`, which LD99 [1] is on record?
A: 2.17 µM

Q: `COCCOc1cccc(-c2nc3ccc(SC(C)C)nn3c2C)c1` was tested. Which LD99 [1] did it give?
A: 19.58 µM

Q: Which LD99 [1] does the source give for `CCOCCOc1ccc(-c2cn3nc(OCC4CC4)ccc3n2)cc1` here?
A: 0.11 µM

Q: For `CCCSc1ccc2nc(-c3cccc(OC)c3)cn2n1`, which LD99 [1] is on record?
A: 2.1 µM

Q: For `CCCOc1ccc2nc(-c3ccc(OCCOC)cc3)c(C)n2n1`, which LD99 [1] is on record?
A: 0.32 µM

Q: Which LD99 [1] does the source give for `COCCOc1ccc(-c2cn3nc(N4CCCC4)ccc3n2)cc1` here?
A: 9.6 µM

Q: Which LD99 [1] does the source give for IVERMECTIN here?
A: 0.006 µM

Q: `CCCOc1ccc2nc(-c3ccc(OCCOC)cc3)c(-c3ccccc3)n2n1` was tested. Which LD99 [1] did it give?
A: 9.29 µM

Q: `COCCOc1cccc(-c2nc3ccc(OC(C)C)nn3c2C)c1` was tested. Which LD99 [1] did it give?
A: 14.65 µM

Q: How did the LD99 [1] turn out when `CCCOc1nn2cc(-c3ccc(OCC)cc3)nc2cc1C` was run?
A: 0.6 µM

Q: With `CCCOc1ccc2nc(-c3ccc(OCCOC)cc3)c(C#N)n2n1` as the molecule, how does the LD99 [1] read?
A: 0.11 µM

Q: With `CCOc1ccc2nc(-c3ccc(OCCOC)cc3)cn2n1` as the molecule, how does the LD99 [1] read?
A: 1.3 µM
